{
  "source": "patent US11427567B2",
  "about": "“Imidazolyl pyrimidinylamine compounds as CDK2 inhibitors” (Incyte Corporation, priority 2019, dated 2022)",
  "data": [
    {"molecular_target": "CDK2/Cyclin E1 (Homo sapiens (Human), UniProt P24941)", "test": "CDK2/Cyclin E1 HTRF enzyme activity assay (Example A)", "assay_type": "biochemical", "conditions": "1 mM ATP", "protocol": "Assays were conducted in white 384-well polystyrene plates in a final reaction volume of 8 μL. […] HTRF signals were read after 1 hour at room temperature on a PHERAstar FS plate reader (BMG Labtech). Data was analyzed with IDBS XLFit and GraphPad Prism 5.0 software using a three or four parameter dose response curve to determine IC50 for each compound.", "units": {"IC50": "µM"}, "values": [
      {"molecule": "CN1CC(c2ccc(-n3cnc(-c4nc(NC5CCN(S(C)(=O)=O)CC5)ncc4C(F)(F)F)c3)c(C#N)c2)C1", "note": "[Example 428, 5-(1-Methylazetidin-3-yl)-2-(4-(2-((1-(methylsulfonyl)piperidin-4-yl)amino)-5-(trifluoromethyl)pyrimidin-4-yl)-1H-imidazol-1-yl)benzonitrile]", "IC50": "≤ 0.05"},
      {"molecule": "CCN1CC(c2ccc(-n3cnc(-c4nc(NC5CCN(S(C)(=O)=O)CC5)ncc4C(F)(F)F)c3)c(C#N)c2)C1", "note": "[Example 429, 5-(1-Ethylazetidin-3-yl)-2-(4-(2-((1-(methylsulfonyl)piperidin-4-yl)amino)-5-(trifluoromethyl)pyrimidin-4-yl)-1H-imidazol-1-yl)benzonitrile]", "IC50": "≤ 0.05"},
      {"molecule": "CN1CCN(c2ccc(-n3cnc(-c4nc(NC5CCN(S(C)(=O)=O)CC5)ncc4C(F)(F)F)c3)c(C#N)c2)CC1", "note": "[Example 430, 5-(4-Methylpiperazin-1-yl)-2-(4-(2-((1-(methylsulfonyl)piperidin-4-yl)amino)-5-(trifluoromethyl)pyrimidin-4-yl)-1H-imidazol-1-yl)benzonitrile]", "IC50": "≤ 0.05"},
      {"molecule": "CNCCN(C)c1ccc(-n2cnc(-c3nc(NC4CCN(S(C)(=O)=O)CC4)ncc3C(F)(F)F)c2)c(C#N)c1", "note": "[Example 431, 5-(Methyl(2-(methylamino)ethyl)amino)-2-(4-(2-((1-(methylsulfonyl)piperidin-4-yl)amino)-5-(trifluoromethyl)pyrimidin-4-yl)-1H-imidazol-1-yl)benzonitrile]", "IC50": "≤ 0.05"},
      {"molecule": "CN(C)CCNc1ccc(-n2cnc(-c3nc(NC4CCN(S(C)(=O)=O)CC4)ncc3C(F)(F)F)c2)c(C#N)c1", "note": "[Example 432, 5-((2-(Dimethylamino)ethyl)amino)-2-(4-(2-((1-(methylsulfonyl)piperidin-4-yl)amino)-5-(trifluoromethyl)pyrimidin-4-yl)-1H-imidazol-1-yl)benzonitrile]", "IC50": "≤ 0.05"},
      {"molecule": "CN(C)CCc1ccc(-n2cnc(-c3nc(NC4CCN(S(C)(=O)=O)CC4)ncc3C(F)(F)F)c2)c(C#N)c1", "note": "[Example 433, 5-(2-(Dimethylamino)ethyl)-2-(4-(2-((1-(methylsulfonyl)piperidin-4-yl)amino)-5-(trifluoromethyl)pyrimidin-4-yl)-1H-imidazol-1-yl)benzonitrile]", "IC50": "≤ 0.05"},
      {"molecule": "CS(=O)(=O)N1CCC(Nc2ncc(C(F)(F)F)c(-c3cn(-c4ccc(CCN5CCCC5)cc4C#N)cn3)n2)CC1", "note": "[Example 434, 2-(4-(2-((1-(Methylsulfonyl)piperidin-4-yl)amino)-5-(trifluoromethyl)pyrimidin-4-yl)-1H-imidazol-1-yl)-5-(2-(pyrrolidin-1-yl)ethyl)benzonitrile]", "IC50": "≤ 0.05"},
      {"molecule": "CN(C)CCOc1ccc(-n2cnc(-c3nc(NC4CCN(S(C)(=O)=O)CC4)ncc3C(F)(F)F)c2)c(C#N)c1", "note": "[Example 435, 5-(2-(Dimethylamino)ethoxy)-2-(4-(2-((1-(methylsulfonyl)piperidin-4-yl)amino)-5-(trifluoromethyl)pyrimidin-4-yl)-1H-imidazol-1-yl)benzonitrile]", "IC50": "≤ 0.05"},
      {"molecule": "CCOc1ccc(-n2cnc(-c3nc(NC4CCN(S(C)(=O)=O)CC4)ncc3C(F)(F)F)c2)c(C#N)c1", "note": "[Example 436, 5-Ethoxy-2-(4-(2-((1-(methylsulfonyl)piperidin-4-yl)amino)-5-(trifluoromethyl)pyrimidin-4-yl)-1H-imidazol-1-yl)benzonitrile]", "IC50": "≤ 0.05"},
      {"molecule": "CS(=O)(=O)N1CCC(Nc2ncc(C(F)(F)F)c(-c3cn(-c4ccc(OCCN5CCCC5)cc4C#N)cn3)n2)CC1", "note": "[Example 437, 2-(4-(2-((1-(Methylsulfonyl)piperidin-4-yl)amino)-5-(trifluoromethyl)pyrimidin-4-yl)-1H-imidazol-1-yl)-5-(2-(pyrrolidin-1-yl)ethoxy)benzonitrile]", "IC50": "≤ 0.05"},
      {"molecule": "CCN1CCC(c2ccc(-n3cnc(-c4nc(NC5CCN(S(C)(=O)=O)CC5)ncc4C(F)(F)F)c3)c(Cl)c2)CC1", "note": "[Example 438, 4-(1-(2-Chloro-4-(1-ethylpiperidin-4-yl)phenyl)-1H-imidazol-4-yl)-N-(1-(methylsulfonyl)piperidin-4-yl)-5-(trifluoromethyl)pyrimidin-2-amine]", "IC50": "≤ 0.05"},
      {"molecule": "CN1CCC(c2ccc(-n3cnc(-c4nc(NC5CCN(S(C)(=O)=O)CC5)ncc4C(F)(F)F)c3)c(Cl)c2)CC1", "note": "[Example 439, 4-(1-(2-Chloro-4-(1-methylpiperidin-4-yl)phenyl)-1H-imidazol-4-yl)-N-(1-(methylsulfonyl)piperidin-4-yl)-5-(trifluoromethyl)pyrimidin-2-amine]", "IC50": "≤ 0.05"},
      {"molecule": "CN1CC(c2ccc(-n3cnc(-c4nc(NC5CCN(S(C)(=O)=O)CC5)ncc4C(F)(F)F)c3)c(Cl)c2)C1", "note": "[Example 440, 4-(1-(2-Chloro-4-(1-methylazetidin-3-yl)phenyl)-1H-imidazol-4-yl)-N-(1-(methylsulfonyl)piperidin-4-yl)-5-(trifluoromethyl)pyrimidin-2-amine]", "IC50": "≤ 0.05"},
      {"molecule": "CS(=O)(=O)N1CCC(Nc2ncc(C(F)(F)F)c(-c3cn(-c4ccc(CN5CCOC5=O)cc4Cl)cn3)n2)CC1", "note": "[Example 441, 3-(3-Chloro-4-(4-(2-((1-(methylsulfonyl)piperidin-4-yl)amino)-5-(trifluoromethyl)pyrimidin-4-yl)-1H-imidazol-1-yl)benzyl)oxazolidin-2-one]", "IC50": "≤ 0.05"},
      {"molecule": "CS(=O)(=O)N1CCC(Nc2ncc(C(F)(F)F)c(-c3cn(-c4ccccc4Br)cn3)n2)CC1", "note": "[Example 442, 4-(1-(2-Bromophenyl)-1H-imidazol-4-yl)-N-(1-(methylsulfonyl)piperidin-4-yl)-5-(trifluoromethyl)pyrimidin-2-amine]", "IC50": "≤ 0.05"},
      {"molecule": "CN1CCN(Cc2cc(F)c(-n3cnc(-c4nc(N[C@H]5CCN(S(C)(=O)=O)C[C@H]5F)ncc4C(F)(F)F)c3)c(F)c2)CC1", "note": "[Example 443, 4-(1-(2,6-Difluoro-4((4-methylpiperazin-1-yl)methyl)phenyl)-1H-imidazol-4-yl)-N-((3R,4S)-3-fluoro-1-(methylsulfonyl)piperidin-4-yl)-5-(trifluoromethyl)pyrimidin-2-amine]", "IC50": "≤ 0.05"},
      {"molecule": "CCNCc1cc(F)c(-n2cnc(-c3nc(N[C@H]4CCN(S(C)(=O)=O)C[C@H]4F)ncc3C(F)(F)F)c2)c(F)c1", "note": "[Example 444, 4-(1-(4-((Ethylamino)methyl)-2,6-difluorophenyl)-1H-imidazol-4-yl)-N-((3R,4S)-3-fluoro-1-(methylsulfonyl)piperidin-4-yl)-5-(trifluoromethyl)pyrimidin-2-amine]", "IC50": "≤ 0.05"},
      {"molecule": "CCN1CCN(Cc2ccc(-n3cc(-c4nc(N[C@H]5CCN(S(C)(=O)=O)C[C@H]5F)ncc4C(F)(F)F)nc3C)c(F)c2)CC1", "note": "[Example 445, 4-(1-(4-((4-Ethylpiperazin-1-yl)methyl)-2-fluorophenyl)-2-methyl-1H-imidazol-4-yl)-N-((3R,4S)-3-fluoro-1-(methylsulfonyl)piperidin-4-yl)-5-(trifluoromethyl)pyrimidin-2-amine]", "IC50": "≤ 0.05"},
      {"molecule": "Cc1nc(-c2nc(N[C@H]3CCN(S(C)(=O)=O)C[C@H]3F)ncc2C(F)(F)F)cn1-c1ccc(CN2CCC(C)(O)CC2)cc1F", "note": "[Example 446, 1-(3-Fluoro-4-(4-(2-(((3R,4S)-3-fluoro-1-(methylsulfonyl)piperidin-4-yl)amino)-5-(trifluoromethyl)pyrimidin-4-yl)-2-methyl-1H-imidazol-1-yl)benzyl)-4-methylpiperidin-4-ol]", "IC50": "≤ 0.05"},
      {"molecule": "CCN1CCN(Cc2cc(F)c(-n3cnc(-c4nc(N[C@H]5CCN(S(C)(=O)=O)C[C@H]5F)ncc4C(F)(F)F)c3)c(F)c2)CC1", "note": "[Example 447, 4-(1-(4-((4-Ethylpiperazin-1-yl)methyl)-2,6-difluorophenyl)-1H-imidazol-4-yl)-N-((3R,45)-3-fluoro-1-(methylsulfonyl)piperidin-4-yl)-5-(trifluoromethyl)pyrimidin-2-amine]", "IC50": "≤ 0.05"},
      {"molecule": "CS(=O)(=O)N1CCC(Nc2ncc(C(F)(F)F)c(-c3cn(-c4ccc(CNCC(F)F)cc4C(F)(F)F)cn3)n2)CC1", "note": "[Example 448, 4-(1-(4-(((2,2-Difluoroethyl)amino)methyl)-2-(trifluoromethyl)phenyl)-1H-imidazol-4-yl)-N-(1-(methylsulfonyl)piperidin-4-yl)-5-(trifluoromethyl)pyrimidin-2-amine]", "IC50": "≤ 0.05"},
      {"molecule": "CC1(O)CN(Cc2ccc(-n3cnc(-c4nc(NC5CCN(S(C)(=O)=O)CC5)ncc4C(F)(F)F)c3)c(C(F)(F)F)c2)C1", "note": "[Example 449, 3-Methyl-1-(4-(4-(2-((1-(methylsulfonyl)piperidin-4-yl)amino)-5-(trifluoromethyl)pyrimidin-4-yl)-1H-imidazol-1-yl)-3-(trifluoromethyl)benzyl)azetidin-3-ol]", "IC50": "≤ 0.05"},
      {"molecule": "Cc1cc(CNCC(F)F)ccc1-n1cnc(-c2nc(NC3CCN(S(C)(=O)=O)CC3)ncc2C(F)(F)F)c1", "note": "[Example 450, 4-(1-(4-(((2,2-Difluoroethyl)amino)methyl)-2-methylphenyl)-1H-imidazol-4-yl)-N-(1-(methylsulfonyl)piperidin-4-yl)-5-(trifluoromethyl)pyrimidin-2-amine]", "IC50": "≤ 0.05"},
      {"molecule": "CN1CCN(Cc2ccc(-n3cnc(-c4nc(NC5CCN(S(C)(=O)=O)CC5)ncc4C(F)(F)F)c3)c(Cl)c2)C(=O)C1", "note": "[Example 451, 1-(3-Chloro-4-(4-(2-((1-(methylsulfonyl)piperidin-4-yl)amino)-5-(trifluoromethyl)pyrimidin-4-yl)-1H-imidazol-1-yl)benzyl)-4-methylpiperazin-2-one]", "IC50": "≤ 0.05"},
      {"molecule": "CS(=O)(=O)N1CCC(Nc2ncc(C(F)(F)F)c(-c3cn(-c4ccc(CN5CCC5=O)cc4Cl)cn3)n2)CC1", "note": "[Example 452, 1-(3-Chloro-4-(4-(2-((1-(methylsulfonyl)piperidin-4-yl)amino)-5-(trifluoromethyl)pyrimidin-4-yl)-1H-imidazol-1-yl)benzyl)azetidin-2-one]", "IC50": "≤ 0.05"},
      {"molecule": "CN1CCN(Cc2ccc(-n3cnc(-c4nc(NC5CCN(S(C)(=O)=O)CC5)ncc4C(F)(F)F)c3)c(Cl)c2)C1=O", "note": "[Example 453, 1-(3-Chloro-4-(4-(2-((1-(methylsulfonyl)piperidin-4-yl)amino)-5-(trifluoromethyl)pyrimidin-4-yl)-1H-imidazol-1-yl)benzyl)-3-methylimidazolidin-2-one]", "IC50": "≤ 0.05"}
    ]}
  ]
}
